{
  "source": "patent US10221160B2",
  "about": "“Metalloenzyme inhibitor compounds” (Mycovia Pharmaceuticals, Inc., priority 2012, dated 2019)",
  "key": {"[1]": {"system": "C. albicans", "experiment": "Minimum Inhibitory Concentration (MIC), CLSI M27-A2", "assay_type": "cell-based", "settings": "for MIC: Candida albicans", "experimental": "A. Minimum Inhibitory Concentration (MIC) Compounds were assessed for their ability to inhibit the growth of common strains of fungus, C. albicans using a standardized procedure (CLSI M27-A2). Stock solutions of the test compounds and standards were prepared in DMSO at 1,600 μg/mL (C. albicans). Eleven, serial, one-half dilutions of compounds were prepared in 96-well plates in RPMI+MOPS. The assay concentration ranges were 8-0.001 μg/mL (C. albicans). Cell suspensions of C. albicans were prepared and added to each well at concentrations of approximately 3.7×10^3 colony-forming-units per milliliter (cfu/mL). All testing was in duplicate. The inoculated plates were incubated for approximately 48 h at 35±1° C. At the completion of incubation the wells of each plate were evaluated visually for the presence of fungal growth. […] For QC purposes C. krusei isolate ATCC 6258 (4.0×10^3 cfu/mL) was included in the VOR assay."}, "[2]": {"biological_target": "CYP3A4 (Homo sapiens (Human), UniProt P08684)", "sequence (P08684 whole entry)": "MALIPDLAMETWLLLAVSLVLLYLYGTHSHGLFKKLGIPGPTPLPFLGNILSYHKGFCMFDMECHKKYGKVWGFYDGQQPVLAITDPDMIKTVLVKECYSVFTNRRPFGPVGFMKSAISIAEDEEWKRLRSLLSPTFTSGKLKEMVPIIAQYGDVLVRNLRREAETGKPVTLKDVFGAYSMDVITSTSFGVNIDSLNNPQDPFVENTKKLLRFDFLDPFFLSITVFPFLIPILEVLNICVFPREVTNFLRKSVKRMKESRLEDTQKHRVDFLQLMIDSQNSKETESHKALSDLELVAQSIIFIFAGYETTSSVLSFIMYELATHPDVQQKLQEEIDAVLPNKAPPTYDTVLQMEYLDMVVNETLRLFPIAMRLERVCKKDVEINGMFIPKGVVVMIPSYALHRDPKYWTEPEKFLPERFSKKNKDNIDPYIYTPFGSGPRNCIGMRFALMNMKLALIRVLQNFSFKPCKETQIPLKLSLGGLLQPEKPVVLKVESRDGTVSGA", "experiment": "Inhibition of liver cytochrome P450 enzymes (pooled human liver microsomes)", "assay_type": "in vitro ADME", "experimental": "A. […] Solutions of each test compound were separately prepared at concentrations of 20000, 6000, 2000, 600, 200, and 60 μM by serial dilution with DMSO:MeCN (50:50 v/v). The individual test compound solutions were then diluted 20-fold with DMSO:MeCN:deionized water (5:5:180 v/v/v) to concentrations of 1000, 300, 100, 30, 10, and 3 μM. […] The mixed inhibitor solutions were then diluted 20-fold with DMSO:MeCN:deionized water (5:5:180 v/v/v) to concentrations of 300, 100, 30, 10, 3, 1, 0.3, and 0.1 μM. The percent of organic solvent attributable to the test compound or inhibitor mixture in the final reaction mixture was 2% v/v. Pooled human liver microsome suspension (20 mg/mL) was diluted with phosphate buffer to obtain a 5 mg/mL suspension. A solution of NADPH was prepared in phosphate buffer at a concentration of 5 mM. Separate stock solutions of each substrate were prepared in DMSO:MeCN (50:50 v/v), mixed, and diluted in phosphate buffer to obtain a single solution containing each substrate at five times its experimentally determined Km concentration. […] A portion of the supernatant was analyzed by gradient reverse-phase HPLC with detection by electrospray ionization triple quadrupole mass spectrometry in the positive ion mode. Data was fitted to sigmoid dose-response curves and the inhibitory potency of each test compound was determined as its IC50 value."}, "[3]": {"settings": "rating scale, read-out: Candida MIC Rating"}},
  "note": "Like-named read-outs stand apart in the source and are kept apart here.",
  "data": [
    {"smiles": "OC(Cn1cnnn1)(c1ccc(F)cc1F)C(F)(F)c1ccc(-c2ccc(C(F)(F)F)cc2)cn1", "note": "(stereo not drawn) [Example 2, 2-(2,4-Difluorophenyl)-1,1-difluoro-3-(1H-tetrazol-1-yl)-1-(5-(4-(trifluoromethyl)phenyl)pyridin-2-yl) propan-2-ol]", "values": [
      {"measurement": "MIC", "setting": "[1]; 48 h, about 50% growth reduction, approximately 48 h at 35 °C, read-out: Candida MIC", "result": "≤ 0.016", "unit": "mg/L"},
      {"measurement": "MIC", "setting": "[1]; [3]", "result": "< 0.5", "unit": "mg/L"},
      {"measurement": "IC50", "setting": "[2]", "result": "> 60", "unit": "µM"}
    ]},
    {"smiles": "OC(Cn1cnnn1)(c1ccc(F)cc1F)C(F)(F)c1ccc(-c2cc(F)ccc2F)cn1", "note": "(stereo not drawn) [Example 10, 2-(2,4-Difluorophenyl)-1-(5-(2,5-difluorophenyl)pyridin-2-yl)-1,1-difluoro-3-(1H-tetrazol-1-yl)propan-2-ol]", "values": [
      {"measurement": "MIC", "setting": "[1]; [3]", "result": "< 0.5", "unit": "mg/L"}
    ]},
    {"smiles": "CC(F)(c1ccc(-c2ccc(OC(F)(F)F)cc2)cn1)C(O)(Cn1cnnn1)c1ccc(F)cc1F", "note": "(stereo not drawn) [Example 46, 2-(2,4-Difluorophenyl)-3-fluoro-1-(1H-tetrazol-1-yl)-3-(5-(4-(trifluoromethoxy)phenyl)-pyridin-2-yl)butan-2-ol]", "values": [
      {"measurement": "MIC", "setting": "[1]; [3]", "result": "0.5 to 1.5", "unit": "mg/L"}
    ]},
    {"smiles": "CC(F)(c1ccc(-c2ccc(OC(F)(F)F)cc2)cn1)C(O)(Cn1cnnn1)c1ccc(F)cc1F", "note": "(stereo not drawn) [Example 47, 2-(2,4-Difluorophenyl)-3-fluoro-1-(1H-tetrazol-1-yl)-3-(5-(4-(trifluoromethoxy)phenyl)-pyridin-2-yl)butan-2-ol]", "values": [
      {"measurement": "Candida MIC Rating", "setting": "[1]; rating scale", "result": "A (≤0.5)"}
    ]},
    {"smiles": "OC(Cn1ncnn1)(c1ccc(F)cc1F)C(F)(F)c1ccc(-c2ccc(OCC(F)(F)F)cc2)cn1", "note": "(stereo not drawn) [Example 20, 2-(2,4-Difluorophenyl)-1,1-difluoro-3-(2H-tetrazol-1-yl)-1-(5-(4-(2,2,2-trifluoroethoxy)phenyl)pyridin-2-yl)propan-2-ol]", "values": [
      {"measurement": "MIC", "setting": "[1]; [3]", "result": "> 4", "unit": "mg/L"}
    ]},
    {"smiles": "OC(Cn1cnnn1)(c1ccc(F)cc1F)C(F)(F)c1ccc(-c2ccc(F)cc2)cn1", "note": "(stereo not drawn) [Example 5, 2-(2,4-Difluorophenyl)-1,1-difluoro-1-(5-(4-fluorophenyl)pyridin-2-yl)-3-(1H-tetrazol-1-yl)propan-2-ol]", "values": [
      {"measurement": "MIC", "setting": "[1]; [3]", "result": "< 0.5", "unit": "mg/L"}
    ]},
    {"smiles": "OC(Cn1cnnn1)(c1ccc(F)cc1F)C(F)(F)c1ccc(-c2ccc(OCC(F)(F)F)cc2)cn1", "note": "(stereo not drawn) [Example 39, 2-(2,4-Difluorophenyl)-1,1-difluoro-3-(1H-tetrazol-1-yl)-1-(5-(4-(2,2,2-trifluoroethoxy)phenyl)pyridin-2-yl)propan-2-ol]", "values": [
      {"measurement": "Candida MIC Rating", "setting": "[1]; rating scale", "result": "C (>1.5-4)"}
    ]}
  ]
}
